In data set [1] the test system is stress ulcer formation. Nature of the data set: WIS: Restraint and Water Immersion Stress-Induced Ulcer Inhibition Test. In kind it is in vivo, Male Crj:SD or Slc:SD rats. As to conditions: for WIS: ulcer formation inhibitory rate: rat, 100 mg/kg orally, 7 hours water immersion stress. As to the method: WIS: Restraint and Water Immersion Stress-Induced Ulcer Inhibition Test (i) Meaning The degree of inhibition of the stress ulcer formation is tested. (ii) Method Male Crj:SD or Slc:SD rats (6 to 7-weeek-old) were fasted overnight, but allowed free access to water. Each group has 5 to 8 of these rats. The sample compound was dissolved or suspended in an aqueous solution of 0.3% sodium carboxymethylcellulose or 0.05% Tween 80 and then was orally administered (100 mg/10 ml/kg). To a control group, the vehicle was administered. 10 minutes later, the rats were placed in a stress cage and immersed to the level of xiphoid process in a water bath (21° C.) for 7 hours. At the end of the stress, the rats were sacrificed by inhalation of ether or carbon dioxide. Then, the stomach of each was removed, inflated by injecting 10 ml of 5% formalin neutral buffer solution, and immersed in 1% formalin neutral buffer solution for 30 minutes or more to be fixed. The stomach was incised along the greater curvature and then the length of each erosion in the glandular portion was determined under dissecting microscope. The sum of the length of erosions per stomach was defined as ulcer index (UI). (iii) Judgment Standard […]

Data set [2] concerns isolated gastric fundic gland. Description: CAP: Acid Secretion Inhibition Test in vitro ([^14 C]-aminopyrine uptake). In kind it is cell-based, male Japanese White rabbit. The following applies: rabbit isolated gastric fundic gland, 10^-5 M, histamine 10^-5 M; for inhibition at 10 µM: Oryctolagus cuniculus, read-out: CAP: Acid secretion inhibitory rate. As to the method:
CAP: Acid Secretion Inhibition Test in vitro (i) Meaning The acid secretion inhibitory activity in a cell level is studied. It can also be used for studying the mechanism of the effect. (ii) Method (ii)-(a) Preparation of isolated gastric gland suspension First, an isolated gastric fundic gland sample was prepared. Namely, a male Japanese White rabbit (2.5 to 3 kg) was anesthetized to death with Nembutal™ and then the abdomen was incised. Immediately thereafter, the stomach was removed and, after its pyloric and cardiac antrum were severed, incised along its greater curvature into two sheets. The gastric contents adhering to the mucosal surface was washed out with ice-cooled PBS (-) and then carefully washed therein. The gastric wall was spread on a cork board with its mucosal surface facing up and the feed and mucus thereon were completely removed with sterile gauze. The mucosa was separated therefrom by a spatula and then collected in ice-cooled PBS (-). After being washed twice with PBS (-), the mucosa was minced into 2-3 mm^3 pieces by scissors. These pieces were further washed twice with a nutrient solution. The nutrient solution comprises 132.4 mM of NaCl, 5.4 mM of KCl, 5 mM of Na2 HPO4 ·12H2 O, 1 mM of NaH2 PO4 ·2H2 O, 1.2 mM of MgSO4, 1 mM of CaCl2, 25 mM of HEPES, 2 mg/ml of glucose, and 1 mg/ml of BSA. Into 70 ml of the nutrient solution containing 1 mg/ml of collagenase, minced mucosal pieces were dispersed and intensely stirred in a conical flask with a stirrer at 37° C. for 40 to 60 minutes. […] The nutrient solution was added to the reaction solution so as to attain the total amount of about 200 ml. After being filtered through a mesh, the suspension was divisionally introduced into 50 ml centrifuge tubes and left for 15 minutes such that gastric fundic gland was deposited. The supernatant was repeatedly removed by an aspirator, dispersed in the nutrient solution, and then left such that the gastric fundic gland was washed three times. At this time, without using a pipette, the suspension was alternately introduced into two centrifuge tubes so as to effect dispersion. The number of cells was counted under microscope and adjusted to 1.6×10^6 cells/ml. (ii)-(b) [^14 C]-aminopyrine uptake test Then [^14 C]-aminopyrine uptake test was performed. After an Eppendorf tube was weighed, 10 μl (final concentration: 10^-5 M) of histamine dissolved in the above-mentioned nutrient solution, 10 μl (final concentration: 10 ^-5 M) of the test compound dissolved in DMSO, and 10 μl (final concentration: 0.05 μCi/ml) of [^14 C]-aminopyrine diluted with the nutrient solution were introduced therein and then 970 μl of the isolated gastric fundic gland suspension prepared above were added thereto. Subsequently, this mixture was shaken at 37° C. for 40 minutes at 125 cycles/minute. After being centrifuged for 30 minutes 200 μl of its supernatant was collected into a mini-vial, while the rest was removed by an aspirator. The gland pellet was completely dried as the tube with its lid being opened was kept for one night in a drying oven at 80° C. and then the weight was determined at room temperature. Then 100 μl of 1N KOH was added thereto an the tube with its lid being closed was treated at 60° C. for 1 to 2 hours so as to dissolve the pellet. Then, the contents thereof were transferred to a mini-vial. Into the mini-vial containing the supernatant or gland pellet, 4 ml of Atomlite™ was added and then the radioactivity was measured by a liquid scintillation counter. Here, after the radioactivity of the gland pellet was corrected by using a sample in which 20 mM of NaSCN was added so as to cancel the hydrogen ion concentration gradient, the integration ratio of aminopyrine specifically trapped by the gland pellet was calculated. This experiment was performed in duplicate. (ii)-(c) Calculation of the accumulation rate of aminopyrine Here, its principle will be briefly explained. […]

Data set [3] concerns gastric corpus mucosa cells. Description: MTT: Cell Damaging and Protecting Effect Test. In kind it is cell-based, male Japanese White rabbit. As to conditions: rabbit gastric mucosa cells, 10^-4 M, 4 hours; smaller value is better; 100 µM. The source says:
(§1) MTT: Cell Damaging and Protecting Effect Test
(§2) It is confirmed that there is no toxicity in cell level. Those having toxicity in cell level are inappropriate as an anti-ulcer drug.
(§3) A male Japanese White rabbit (2.5 to 3 kg) was anesthetized to death by Nembutal™ and, immediately thereafter, its stomach was removed. The greater curvature of the stomach was incised so as to remove the stomach contents therefrom. After the mucosal surface was washed with HBSS (Hank's Balanced Salt Solution), the stomach in ice-cooled HBSS was transferred to a laboratory. Then, after the pyloric antrum was removed, the gastric corpus mucosa was separated by a spatula and then minced into 2 to 3 mm pieces in BME (Basal Medium Eagle). Thereafter, these pieces were shaken at 120 to 130 cycles/minute for 15 minutes at 37° C. in BME 60 ml containing 280 U/ml of dispase and 30 to 50 U/mil of collagenase. Here, the concentration of collagenase was appropriately changed for each lot in view of the state of cells. The pieces were washed twice with EBSS (Earle's Balanced Salt Solution) containing 1 mM of EDTA and then shaken in MEM (Minimum Essential Medium) containing 1 mM of EDTA at 37° C. for 5 minutes. Subsequently, they were shaken in the dispase and collagenase having the same concentrations as those mentioned above for 15 minutes so as to remove the supernatant and then further shaken at 37° C. for 50 to 60 minutes at 120 to 130 cycles/minute. Then, after being washed twice with HBSS, Ham F12 containing 2% of Ultrocer G™ was used to attain the concentration of 1×10^6 cells/ml. Thus formed suspension was dispensed in each well of a 96-well plate by 200 μl. The plate was incubated in the atmosphere composed of 5% CO2 and 95% air at 37° C. for three days so as to attain a confluent state and then subjected to MTT assay.
(§4) The sample compound was dissolved in DMSO so as to attain a concentration of 10^-2 M and then diluted with HBSS containing 2% of Ultrocer G™ so as to attain a final concentration of 10^-4 M. To each group, which 8 wells were used for, 10 μl of MTT reagent was added immediately after 100 μl of the medium in each well was exchanged for same volume of the resulting solution of the sample compound. After being incubated in an atmosphere composed of 5% CO2 and 95% air at 37° C. for 4 hours, thus formed solution was centrifuged and then its supernatant was discarded. Subsequently, 100 μl of 100% ethanol was added to the residue so as to dissolve MTT formazan. Then, the absorbance (OD: 570 to 630) was measured by a microplate reader. This method utilizes a phenomenon in which MTT is changed to MTT formazan only by mitochondria of living cells so as to change color.
(§5) The cell damaging or cell protecting effect of the sample compound at the final concentration of 10^-4 M was expressed as cell damaging rate (%) as follows:
(§6) cell damaging rate (%)={1-(absorbance in sample group/absorbance in control group)}×100
(§7) Accordingly, the smaller value is better in the cell damaging rate.

A short description of data set [4]: MTT: Cell Damaging and Protecting Effect Test. The following applies: rabbit, gastric mucosa cells, 10^-4 M, smaller value is better, read-out: MTT: cell damaging rate. In kind it is cell-based, male Japanese White rabbit.
Excerpt: as §1, §2, §3, §4, §5, §6, §7

As for `CC(C)c1ccc(C(=O)Nc2nnc(SCCN(C(C)C)C(C)C)s2)cc1.Cl` [Example 3, 2-(4-isopropylbenzoyl)amino-5-diisopropylaminoethylthio-1,3,4-thiadiazole hydrochloride], the “WIS: ulcer formation inhibitory rate” value in data set [1] was found to be 96%. Besides, the “CAP: Acid secretion inhibitory rate” value in data set [2] is 104%. Moreover, in data set [3], the “MTT: cell damaging rate” value is recorded as -75%.
Regarding `CC(C)N(CCSc1nnc(NC(=O)c2ccc(C(C)(C)C)cc2)s1)C(C)C` [Example 5, 2-(4-tert-butylbenzoyl)amino-5-diisopropylaminoethylthio-1,3,4-thiadiazole], in data set [1], the “WIS: ulcer formation inhibitory rate” value is given as 63%. The inhibition at 10 µM in data set [2] was 100%. In data set [4], the cytotoxicity at 4 h, 100 µM is -19%.
Consider `CCN(CC)CCSc1nnc(NC(=O)c2cc(C(C)(C)C)cc(C(C)(C)C)c2)s1` [Example 6, 2-(3,5-di-tert-butylbenzoyl)amino-5-diethylaminoethylthio-1,3,4-thiadiazol], for which, in data set [1] (WIS), the “anti-ulcer effect (in words)” value was “sufficient effects”. For the same compound, the “WIS: ulcer formation inhibitory rate” value in data set [1] is listed as 81%. Moreover, the inhibition at 10 µM in data set [2] came to 100%. For the same compound, the cytotoxicity at 4 h, 100 µM in data set [4] was determined as 58%.
Regarding `CCN(CC)CCSc1nnc(NC(=O)c2ccc(OC(C)C)cc2)s1` [Example 7, 2-(4-isopropyloxybenzoyl)amino-5-diethylaminoethylthio-1,3,4-thiadiazole], the “WIS: ulcer formation inhibitory rate” value in data set [1] worked out at 76%. Further, the inhibition at 10 µM in data set [2] was 97%. Further, the cytotoxicity at 4 h, 100 µM in data set [4] came to 46%.
The like results for `CCN(CC)CCSc1nnc(NC(=O)c2ccc(OC(C)(C)C)cc2)s1` [Example 8, 2-(4-tert-butoxybenzoyl)amino-5-diethylaminoethylthio-1,3,4-thiadiazole] were, in that order, 66%, 99% and -11%.
The like results for `CCN(CC)CCSc1nnc(NC(=O)c2ccc(NC(C)(C)C)cc2)s1` [Example 9, 2-(4-tert-butyaminobenzoyl)amino-5-diethylaminoethylthio-1,3,4-thiadiazole] were, in that order, 51%, 2% and -107%.
The like results for `CCN(CC)CCCSc1nnc(NC(=O)c2ccc(OC/C=C(\C)CCC=C(C)C)cc2)s1` [Example 11, 2-(4-geranyloxybenzoyl)amino-5-diethylaminopropylthio-1,3,4-thiadiazole] were, in that order, 65%, 100% and 48%.
On to `CC(C)=CCC/C(C)=C/COc1ccc(C(=O)Nc2nnc(SCCCN3CCCCC3)s2)cc1` [Example 13, 2-(4-geranyloxybenzoyl)amino-5-piperidinopropylthio-1,3,4-thiadiazole], for which the “WIS: ulcer formation inhibitory rate” value in data set [1] was 51%. For the same compound, the inhibition at 10 µM in data set [2] came out at 100%. Also, the cytotoxicity at 4 h, 100 µM in data set [4] came to 41%.
Turning to `CCCSc1nnc(NC(=O)c2ccc(OC/C=C(\C)CCC=C(C)C)cc2)s1` [Example 16, 2-(4-geranyloxybenzoyl)amino-5-propylthio-1,3,4-thiadiazole], in data set [1], the “WIS: ulcer formation inhibitory rate” value is on record as 53%. Moreover, the cytotoxicity at 4 h, 100 µM in data set [4] turned out to be 14%.
The like results for `CC(C)=CCC/C(C)=C/COc1ccc(C(=O)Nc2nnc(SCC(C)C)s2)cc1` [Example 17, 2-(4-geranyloxybenzoyl)amino-5-isobutylthio-1,3,4-thiadiazole] were, in that order, 46% and -4%.
The corresponding values for `CC(C)=CCC/C(C)=C/COc1ccc(C(=O)Nc2nnc(SCc3ccccc3)s2)cc1` [Example 18, 2-(4-geranyloxybenzoyl)amino-5-benzylthio-1,3,4-thiadiazole] are 32% and 18%.
